Measurements: patent publication US20250000910A1, “Methods of Improving Therapeutic Efficacy of Mesenchymal Stromal Cells for Treatment of Osteoarthritis” (Georgia Tech Research Corporation, priority 2021, published 2025)
“Also recorded” adds a separate entry of the source.

Key:
Type in all cases: cell-based, human
[1] = system: more therapeutic hMSCs (donors M1 and M2); test: Cytokine secretion of more therapeutic hMSCs after pharmacological intervention (Luminex 41 Plex, PLSDA); conditions: for secretion of therapeutic related cytokines (GM-CSF, GRO, IL-4, PDGF-AA) / overall paracrine (cytokine) signaling response: donors M1 and M2, +IL-1β 24 hr, vs CTRL
Procedure: (§1) Loaded samples (2.03 μL) were determined to be within the linear range of detection of the […] Millipore Corporation) system. Cytokines were quantified using a bead based multiplex immunoassay, Luminex Cytokine/Chemokine 41 Plex Immunomodulatory Kit ([…] Millipore Corporation). […] PLSDA was performed in MATLAB (Mathworks) using a function written by Cleiton Nunes (Mathworks File Exchange). This approach accounts for the multivariate nature of the data without overfitting. Prior to inputting the data into the algorithm, all data was z-scored [(observed-mean)/SD]. Intracellular signaling phospho-proteins and cytokine media read outs were used as the independent variables and the different hMSC donor's treatment conditions were used as the outcome variables. LVs in a multidimensional space (dimensionality varied by number of independent input variables) were defined and the two primary LVs were used for orthogonal rotation to best separate groups in the new plane defined by LV1 and LV2 (FIGS. 5a-5c). • Statistical Analysis

[2] = system: less therapeutic hMSCs (donors L1 and L2); test: Cytokine secretion of less therapeutic hMSCs after pharmacological intervention (Luminex 41 Plex, PLSDA); conditions: vs CTRL
Procedure: as §1

p-Akt = test: hMSC intracellular signaling analysis, Akt/mTOR phosphoprotein 11-plex
Excerpt: Millipore Corporation) system.

Structure (SMILES)	secretion of therapeutic related cytokines (GM-CSF, GRO, IL-4, PDGF-AA) [1]	overall paracrine (cytokine) signaling response [1]	also measured
C[S+]([O-])c1ccc(-c2nc(-c3ccncc3)c(-c3ccc(F)cc3)[nH]2)cc1 (stereo not drawn) [SB203580]	reduced cytokine secretion of the therapeutic related cytokines		
CO[C@H]1C[C@@H]2CC[C@@H](C)[C@@](O)(O2)C(=O)C(=O)N2CCCC[C@H]2C(=O)O[C@H]([C@H](C)C[C@@H]2CC[C@@H](O)[C@H](OC)C2)CC(=O)[C@H](C)/C=C(\C)[C@@H](O)[C@@H](OC)C(=O)[C@H](C)C[C@H](C)/C=C/C=C/C=C/1C [Rapamycin]	no effect		
Cc1cc(N2CCOCC2)cc2[nH]c(-c3c(NC[C@@H](O)c4cccc(Cl)c4)cc[nH]c3=O)nc12 [BMS-536924]	no effect	reduced overall paracrine signaling response	
NC1(c2ccc(-c3nc4ccn5c(=O)[nH]nc5c4cc3-c3ccccc3)cc2)CCC1 [MK-2206]			secretion of therapeutic related cytokines (GM-CSF, GRO, IL-4, PDGF-AA) ([2]; donors L1 and L2, +IL-1β 24 hr): no effect; secretion of nonspecific cytokines ([2]; donors L1 and L2, +IL-1β): distinct reductions in nonspecific cytokines; p-Akt phospho-protein levels relative to CTRL (p-Akt; less therapeutic hMSC donor L2, combination Metformin and MK-2206, +IL-1β): significantly (p<0.01) less p-Akt phospho-protein levels; also recorded: decreased p-Akt signaling
CCOC(=O)C1=C(N)Oc2ccc(Cl)cc2C1C(C#N)C(=O)OCC (stereo not drawn) [SC79]	no effect	the greatest potentiation of paracrine signaling	secretion of nonspecific cytokines ([1]; donors M1 and M2, +IL-1β): potentiated secretion of nonspecific cytokines; shift of paracrine signaling profile (PLSDA) ([1]; donors M1 and M2, +IL-1β): clear qualitative shift in the paracrine signaling profiles; p-Akt phospho-protein levels relative to CTRL (p-Akt; more therapeutic hMSC donor M2, combination SP600125 and SC79, +IL-1β): significantly (p<0.001) more p-Akt phospho-protein levels; also recorded: increased p-Akt signaling
